The target of one series is T1, human sEH (Homo sapiens, UniProt P34913).
T1 sequence (P34913 1-555): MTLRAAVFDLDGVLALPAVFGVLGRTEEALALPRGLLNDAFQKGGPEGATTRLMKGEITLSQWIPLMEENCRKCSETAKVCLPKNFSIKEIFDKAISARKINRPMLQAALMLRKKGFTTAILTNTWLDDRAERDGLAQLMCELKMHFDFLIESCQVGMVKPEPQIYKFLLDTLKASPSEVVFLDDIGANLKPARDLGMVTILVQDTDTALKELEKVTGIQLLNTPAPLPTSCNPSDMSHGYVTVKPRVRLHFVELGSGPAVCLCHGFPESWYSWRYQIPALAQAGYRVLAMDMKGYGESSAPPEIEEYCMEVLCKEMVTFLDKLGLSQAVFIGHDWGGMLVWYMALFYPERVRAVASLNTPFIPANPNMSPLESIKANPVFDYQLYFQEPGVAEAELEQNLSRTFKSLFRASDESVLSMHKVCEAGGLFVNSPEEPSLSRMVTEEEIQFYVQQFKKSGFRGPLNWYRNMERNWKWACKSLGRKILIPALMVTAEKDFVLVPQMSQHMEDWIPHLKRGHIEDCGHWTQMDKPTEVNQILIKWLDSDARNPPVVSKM
The series can be described thus: recombinant human sEH inhibition, fluorescent-based substrate. Format: biochemical.

Series [1] addresses T2, FAAH (Homo sapiens, UniProt O00519).
T2 sequence (O00519 1-579): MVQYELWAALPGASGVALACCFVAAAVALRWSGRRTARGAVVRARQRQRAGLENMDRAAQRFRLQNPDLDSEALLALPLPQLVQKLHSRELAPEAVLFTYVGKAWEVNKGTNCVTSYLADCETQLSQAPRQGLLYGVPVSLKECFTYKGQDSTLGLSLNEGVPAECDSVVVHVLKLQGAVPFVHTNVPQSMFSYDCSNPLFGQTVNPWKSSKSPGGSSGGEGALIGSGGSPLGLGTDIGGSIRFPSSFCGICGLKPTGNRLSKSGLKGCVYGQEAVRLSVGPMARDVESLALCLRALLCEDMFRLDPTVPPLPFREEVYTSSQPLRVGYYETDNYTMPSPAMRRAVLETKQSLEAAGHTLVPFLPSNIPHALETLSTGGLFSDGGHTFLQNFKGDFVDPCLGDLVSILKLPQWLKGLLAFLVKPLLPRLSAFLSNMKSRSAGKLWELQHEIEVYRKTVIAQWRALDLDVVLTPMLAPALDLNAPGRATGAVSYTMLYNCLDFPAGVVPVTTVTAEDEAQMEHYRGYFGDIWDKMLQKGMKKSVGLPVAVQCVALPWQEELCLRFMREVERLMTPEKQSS
The series can be described thus: biochemical.

For series [2], the system named is FAAH. Description: block of activity in brain microsomes of the different species tested.
Series [3] has as its target T2, FAAH. The following applies: pre-incubated with FAAH at various time intervals, [S]final = 5 µM.

For orientation: IC50 means the point on the concentration scale where inhibition reaches its midpoint. Regarding `O=C(Nc1cccnc1)N1CCC(Cc2cccc(Oc3ccc(C(F)(F)F)cn3)c2)CC1` [PF-3845, N-(pyridin-3-yl)-4-(3-((5-(trifluoromethyl)pyridin-2-yl)oxy)benzyl)piperidine-1-carboxamide], the IC50 is above 10 µM at human sEH and 0.6 nM against FAAH [1]. In addition, the “activity blocked in the microsomes” value in the series with FAAH [2] is recorded as above 80%.
Turning to `NC(=O)c1cccc(-c2cccc(OC(=O)NC3CCCCC3)c2)c1` [URB597, 3'-carbamoyl-[1-1'-biphenyl]-3-yl cyclohexylcarbamate], at FAAH [3], the “change of FAAH potency with pre-incubation time (in words)” value is “time dependent”.

Values taken from PMC5837813 (Bioorganic & medicinal chemistry letters, 2018).
